Data as given in patent US10632127B2, “Targeted notch pathway inhibitors” (Hoffmann-La Roche Inc., priority 2015, dated 2020).

Experiments:
[1] = test system: Notch1 and cleaved Notch1; test: Immunohistochemistry of Notch1 and cleaved Notch1 in kidneys of mice exposed to aristolochic acid; assay type: in vivo, mouse; conditions: for Notch1 and cleaved Notch1 in kidneys (immunohistochemistry): AA-exposed mice, 11a 10 mg/kg b.i.d. or 13a 30 mg/kg b.i.d. i.p., day 7, versus AA-treated mice without prodrug; for modification of Notch or cleaved Notch levels in the kidneys: healthy wild-type mice, compound injected alone (results not shown)
Experimental: FIG. 3. Expression of Notch1 and active cleaved Notch1 determined by immuno-histochemistry in kidneys of mice exposed to aristolochic acid (AA) and treated either with the amine-SecrI (11a) or with Ac-γ-Glu-SecrI (13a).
Sections (7 μm) of snap-frozen kidneys were exposed to an anti-γ-secretase-cleaved Notch (cNotch) antibody, followed by the […] staining. Immunostaining is visualized as dark precipitate.
All experiments with animals were conducted in accordance with federal and local regulation at the respective study location. Kidney injury was induced by intraperitoneal (i.p). injection of aristolochic acid (AA, Sigma-Aldrich, 1×5 mg/kg) in 10 weeks old BALB/c male mice. The γ-secretase inhibitors prodrugs were diluted in NaCl 0.9% and administered i.p., starting one day before the injection of AA (day −1) and then twice daily until day 6 evening (n=5 mice/experimental group). At day 7 morning (12 h after the last prodrug injection), blood was collected and the mice were sacrificed to remove the liver and both kidneys. The kidneys were cut in four fragments. One fragment was immediately frozen in liquid nitrogen, one fragment was included in OCT (Tissue-Tek, VWR International, Switzerland) and frozen, one fragment was frozen at −80° C. and one fragment was fixed in 4% paraformaldehyde and included in paraffin.
OCT-embedded frozen kidneys were cut at 7 μm. The sections were air dried, fixed for 10 min in cold (−20° C.). methanol, rinsed in PBS 0.1% Triton x-100 (PBS/Triton), and blocked for 30 min with PBS/Triton containing 5% bovine serum albumin (BSA). The rabbit anti-Notch1 antibody (D1E11, diluted 1/50) and the rabbit anti-cleaved Notch1 antibody (Val1744, diluted 1/50) were purchased from Cell Signaling, the biotinylated anti-rabbit antibody from Vector Laboratories (diluted 1/500) and streptavidin/HRP (diluted 1/500) from Dako. The primary antibodies were diluted in PBS containing 5% BSA and were incubated with the sections for 1 h at RT. Endogenous peroxidase and biotin were blocked using 3% H2O2 and Avidin/Biotin blocking kit (Vector Laboratories), respectively. The slides were rinsed with PBS/Triton three times and incubated for 1 h at RT with anti-rabbit biotin secondary antibody diluted in the same buffer as for primary antibodies. After three washes with PBS, slides were incubated with streptavidin/HRP antibody for 1 h at RT, then 3,3′diaminobenzidine (DAB, Dako) was added for 15 min. The slides were washed in distilled water, mounted in Aquamount and analyzed.
To investigate potential nephroprotective effects of Notch blockade using γ-secretase inhibition and to evaluate the effects of our enzyme-targeted prodrug strategy, we used the in vivo AA mouse model of acute renal tubular damage. […]

γ-GT = test: Histoenzymography of γ-GT activity in ex-vivo mouse kidneys; assay type: biochemical; conditions: ex-vivo kidneys of non-diseased BALB/c mice
Experimental: FIG. 2B. Selective inhibition of the enzymatic activities of APA and yGT by the γ-secretase analogues determined by histoenzymography in the kidneys of non diseased BALB/c mice.
Evaluation by histoenzymography of APA and γ-GT enzymatic activities on frozen tissue was performed as described in Juillerat-Jeanneret, L. et al., Lab. Invest. 2000, 80, 973-980. Briefly, OCT-embedded frozen kidneys were cut in 7 μm sections in a cryostat, fixed for 5 min in cold (−20° C.) acetone, air dried at RT and rehydrated for 5 min in 0.9% NaCl. Naphthylamide substrates were obtained from commercial sources (α-Glu-4-methoxy-β-naphtylamide (APA) from Bachem; and γ-Glu-4-methoxy-β-naphtylamide (γ-GT) from Serva). Substrates (1 mg) were dissolved in 1 ml DMF and 2 mg Fast Blue B (Sigma-Aldrich) was dissolved in 2 ml 0.2M cacodylate buffer pH 7.4 containing 700 mg/l CaCl2; then both solutions were slowly mixed immediately before use and the pH adjusted to 6.5-7.0. […] The slides were washed in distilled water, counter-stained with hematoxylin (Mayer) for 1 min, rinsed under tap water, then with Scott solution for 1 min, rinsed under tap water, mounted in Aquamount (Immu-mount, Thermo Shandon Pittsburgh, Pa., USA) and analyzed with a Nikon Eclipse E800 microscope and digital DXM1200 camera using ACT-1 software. […]

Compound | Notch1 and cleaved Notch1 in kidneys (immunohistochemistry) [1] | modification of Notch or cleaved Notch levels in the kidneys [1] | inhibition of γ-GT-like activity (hydrolysis of γ-Glu-naphthylamide) (γ-GT)
C[C@H]1Oc2ccc(F)cc2N(CCOC(=O)NCCN)C(=O)[C@H]1NC(=O)[C@@](C)(O)C(=O)NCC(F)(F)C(F)(F)F.Cl [Compound 11a, 2-((2R,3S)-7-Fluoro-3-((S)-2-hydroxy-2-methyl-3-oxo-3-(2,2,3,3,3-pentafluoropropylamino)propanamido)-2-methyl-4-oxo-3,4-dihydrobenzo[b][1,4]oxazepin-5(2H)-yl)ethyl 2-aminoethylcarbamate hydrochloride] | reduced | Neither (11a) nor (13a) injected alone induced any modification | –
CC(=O)N[C@@H](CCC(=O)NCCNC(=O)OCCN1C(=O)[C@@H](NC(=O)[C@@](C)(O)C(=O)NCC(F)(F)C(F)(F)F)[C@@H](C)Oc2ccc(F)cc21)C(=O)O [Compound 13a, (S)-2-acetamido-5-(2-((2-((2R,3S)-7-fluoro-3-((S)-2-hydroxy-2-methyl-3-oxo-3-(2,2,3,3,3-pentafluoropropylamino)propanamido)-2-methyl-4-oxo-3,4-dihydrobenzo[b][1,4]oxazepin-5(2H)-yl)ethoxy)carbonylamino)ethylamino)-5-oxopentanoic acid] | reduced | Neither (11a) nor (13a) injected alone induced any modification | able to inhibit γ-GT-like activity
